# Measurements as given in publication PMC4809036, “Antitumor effects of cecropin B-LHRH’ on drug-resistant ovarian and endometrial cancer cells” (BMC Cancer, 2016).
# “Also recorded” adds a separate entry of the source. No end group written: not given here.
# T1: LHRH receptor (LHRHr) (Rattus norvegicus, UniProt P30969)
# T1 chain: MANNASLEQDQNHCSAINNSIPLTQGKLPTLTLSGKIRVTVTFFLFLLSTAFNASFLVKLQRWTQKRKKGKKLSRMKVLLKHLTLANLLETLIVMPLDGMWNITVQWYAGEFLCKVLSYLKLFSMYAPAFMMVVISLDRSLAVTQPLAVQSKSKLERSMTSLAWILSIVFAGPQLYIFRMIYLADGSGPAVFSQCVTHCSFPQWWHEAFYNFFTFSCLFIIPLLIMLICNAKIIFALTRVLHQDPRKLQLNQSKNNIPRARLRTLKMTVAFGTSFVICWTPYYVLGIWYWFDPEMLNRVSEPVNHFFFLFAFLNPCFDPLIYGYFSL
# Columns and labels:
# [1] = tested on: four cancer cell lines (SKOV-3, ES-2, NIH:OVCAR-3, HEC-1A); design: method as in ATCC Global Bioresource Center (USA); conditions: ref ATCC Global Bioresource Center (USA); cited from earlier work
# [2] = tested on: ES-2 tumors xenografted into nude mice; experiment: ES-2 xenograft study in nude mice; assay type: in vivo, BALB/c-nu mice
# Experimental: (§1) Five- to six-week-old female (15–20 g) athymic nude mice (BALB/c-nu) were obtained from Shanghai SLAC Laboratory Animal Corporation, China. The animals were housed in sterile cages under laminar flow hoods in a temperature controlled room with a 12-hour light/12-hour dark cycle, and fed autoclaved chow and water ad libitum. All experiments were carried out in accordance with the guidelines for the welfare ethics of experimental animals. All the animal-related procedures were approved by the Animal Ethical Committee of Zhejiang University.
# (§2) Cultured ES-2 ovarian cancer cells were resuspended at 1 × 10^7/ml and inoculated subcutaneously into the nude mouse armpit. When tumors reached 60 mm^3, they were extracted, cut into pieces of about 2 mm^3, and inoculated subcutaneously into the nude mouse armpit. When the tumors reached an average volume of about 100 mm^3, the mice were randomly divided into five groups (n = 10). Groups 1–3 received intra-tumor injection of CB-LHRH’ twice daily at 12.5, 25 or 50 mg/kg^.d, respectively.
# Tumor volumes were assessed every 3 d as 0.5 × length × width^2 (where length is the longest diameter across the tumor and width the corresponding perpendicular diameter as measured by calipers). On day 13, 4 h after the last dose, mice were sacrificed, and tumors excised and weighed; tumor growth inhibition rate was derived as (1-tumor weight treated/tumor weight control) × 100 %.
# Anti-tumor activity was evaluated as relative growth of tumor volume (T/C, value), the mean relative tumor volume (RTV) for the treatment group divided by the mean RTV for the control group, as follows: T/C (%) = TRTV/CRTV X 100 %. RTV = Vt/V0, where Vt is the volume on any given day, and V0 the volume at treatment start.
# Pseudomonas aeruginosa = experiment: Antibacterial assay (agar dilution), Pseudomonas aeruginosa; assay type: cell-based; conditions: Muller Hinton’s agar, 22 h at 35 °C, clinical isolates, listed as Cecropin B-LHRH’
# Experimental: (§3) The antibacterial activity of CB-LHRH’ was evaluated by the agar dilution method. Muller Hinton’s agar medium plates containing serial dilutions of CB-LHRH’ were inoculated with 2 μL of tenfold-diluted 0.5 McF bacteria and incubated for 22 h at 35 °C. The lowest concentration of CB-LHRH’ inhibiting bacterial growth was considered the minimal inhibitory concentration (MIC). Nine clinical strains of the following species were evaluated: Staphylococcus aureus, Klebsiella pneumoniae, Escherichia coli, Enterobacter cloacae, Pseudomonas aeruginosa, and Acinetobacter baumannii.
# Escherichia coli = experiment: Antibacterial assay (agar dilution), Escherichia coli; assay type: cell-based; conditions: Muller Hinton’s agar, 22 h at 35 °C, clinical isolates
# Experimental: as §3
# Klebsiella pneumoniae = experiment: Antibacterial assay (agar dilution), Klebsiella pneumoniae; assay type: cell-based; conditions: Muller Hinton’s agar, 22 h at 35 °C, clinical isolates
# Experimental: as §3
# Enterobacter cloacae = experiment: Antibacterial assay (agar dilution), Enterobacter cloacae; assay type: cell-based; conditions: Muller Hinton’s agar, 22 h at 35 °C, clinical isolates
# Experimental: as §3
# nude mice = experiment: General toxicity (survival, body weight) in ES-2 xenograft mice; assay type: in vivo, BALB/c-nu mice; conditions: for surviving mice: intra-tumoral, twice daily, thirteen days later, n = 10 (PBS: 9 survived)
# Experimental: as §1, §2
# General toxicity was evaluated based on body weight, measured weekly.
# guinea pigs = experiment: Hypersensitization test in guinea pigs; conditions: n = 6
# Experimental: Under approved animal research protocol standards, the hypersensitive reaction against CB-LHRH’ (2 mg/mL, equal to 438 μM) was assessed in guinea pigs. According to the Chinese Pharmacopoeia, six animals with an average weight of 250 g (XiFengYang Special Economic Animal Farm, Huzhou, China) were administered an intraperitoneal injection of 0.5 mL of CB-LHRH’ every other day three times, while three additional animals received PBS physiological saline injections. Of the six animals administered CB-LHRH’, three received an intravenous injection of 1 mL CB-LHRH’ at day 15, and the remaining three at day 22. Allergic reactions, such as piloerection, sneezing, lacrimation, dyspnoea, and hyperspasmia, were then monitored for the next 30 min.
# Acinetobacter baumannii = experiment: Antibacterial assay (agar dilution), Acinetobacter baumannii; assay type: cell-based; conditions: Muller Hinton’s agar, 22 h at 35 °C, clinical isolates
# Experimental: as §3
# Staphylococcus aureus = experiment: Antibacterial assay (agar dilution), Staphylococcus aureus; assay type: cell-based; conditions: Muller Hinton’s agar, 22 h at 35 °C, clinical isolates, listed as Cecropin B-LHRH’
# Experimental: as §3
# LHRH receptor (LHRHr) = biological target: T1, LHRH receptor (LHRHr); experiment: radioligand saturation binding (Scatchard), rat pituitary membranes
molecule,measurement,setting,value
N.N.[Cl][Pt][Cl] [Cisplatin],resistance of the cell lines to the drug,[1],resistant
same,"Tumor Volume, d 1","[2]; cisplatin 0.67 mg/kg.d (2 mg/kg once every 3 days), d 1, Mean ± SD, n = 10 per group",343.91 ± 123.06 mm^3
same,"Tumor Volume, d 13","[2]; cisplatin 0.67 mg/kg.d (2 mg/kg once every 3 days), d 13, Mean ± SD, ** P < 0.01 vs PBS",913.16 ± 142.64** mm^3
same,T/C,"[2]; cisplatin 0.67 mg/kg.d (2 mg/kg once every 3 days), d 13, RTV treated/RTV PBS control, ≤60 % = active",42%
same,Tumor Weight,"[2]; cisplatin 2 mg/kg once every 3 days, d 13, Mean ± SD, **P < 0.01 vs PBS",1.09 ± 0.25 ** g
COc1cccc2c1C(=O)c1c(O)c3c(c(O)c1C2=O)C[C@@](O)(C(=O)CO)C[C@@H]3O[C@H]1C[C@H](N)[C@H](O)[C@H](C)O1 [doxorubicin],resistance of the cell lines to the drug,[1],resistant
KWKVFKKIEKMGRNIRNGIVKAGPAIAVLGEAKALSYGLRPG [CB-LHRH’],MIC,Pseudomonas aeruginosa,> = 15.44 μM
same,MIC,Escherichia coli,3.86 to 7.72 µM
same,MIC,Klebsiella pneumoniae,3.86 to 7.72 µM
same,MIC,Enterobacter cloacae,3.86 to 7.72 µM
same,surviving mice,nude mice; CB-LHRH’ 12.5 mg/kg.d,8
same,surviving mice,nude mice; CB-LHRH’ 25 mg/kg.d,9
same,surviving mice,nude mice; CB-LHRH’ 50 mg/kg.d,7
same,animal weights,"nude mice; CB-LHRH’ intra-tumoral, by day 13",no differences were found in animal weights
same,hypersensitivity / anaphylaxis,"guinea pigs; 0.5 mL of 2 mg/mL i.p. every other day three times, then 1 mL i.v. at day 15 or 22, monitored 30 min, data not shown",no hypersensitivity; also recorded: No anaphylaxis occurred in any of the six guinea pigs; also recorded: no hypersensitive reactions in guinea pigs
same,survival,guinea pigs; 0.5 mL of 2 mg/ml i.p. every other day three times,survived the 15 days of treatment
same,MIC,Acinetobacter baumannii,1.93 to 7.72 µM
same,MIC,Staphylococcus aureus,>15.44 µM
diphtheria toxin,resistance of the cell lines to the drug,[1],resistant
KWKVFKKIEKMGRNIRNGIVKAGPAIAVLGEAKALSYGLRPG (also: 125I-labelled) [Cecropin B-LHRH' (CB-LHRH')],Kd,LHRH receptor (LHRHr),0.253 nM
